Like-named read-outs stand apart in the source and are kept apart here.
Assays:
[1] = biological target: T1, recombinantly expressed His-tagged protein corresponding to amino acids 575-869 of human Tyk2 (Homo sapiens, UniProt P29597); assay: Probe displacement assay (scintillation proximity, tritiated probe); type: binding; settings: His-tagged Tyk2 (575-869) 2.5 nM, 40 nM radiolabeled probe, 30 minutes at room temperature
T1 construct: made in house
Experimental: The preparation of radiolabeled probe, (R)—N-(1-(3-(8-methyl-5-(methylamino)-8H-imidazo[4,5-d]thiazolo[5,4-b]pyridin-2-yl)phenyl)ethyl)-2-([^3H]methylsulfonyl)benzamide, was performed as described below: […]

[2] = test system: IL-23 stimulated Kit225 T cells with a stably-integrated STAT-dependent luciferase reporter; assay: Kit225 T cell assay, IL-23 stimulated STAT-dependent luciferase reporter; type: cell-based, human
Experimental: (§1) Kit225 T cells with a stably-integrated STAT-dependent luciferase reporter were plated in RPMI (GIBCO) containing 10% heat-inactivated FBS (GIBCO) and 100 U/mL PenStrep (GIBCO). The cells were then stimulated with either 20 ng/mL human recombinant IL-23 or 200 U/mL human recombinant IFNα (PBL InterferonSource) for 5-6 hours. Luciferase expression was measured using the STEADY-GLO Luciferase Assay System (PROMEGA) according to the manufacturer's instructions.

[3] = test system: IFNα stimulated Kit225 T cells with a stably-integrated STAT-dependent luciferase reporter; assay: Kit225 T cell assay, IFNα stimulated STAT-dependent luciferase reporter; type: cell-based, human
Experimental: as §1

[4] = KIT225, 20 ng/mL human recombinant IL-23, 5-6 hours, luciferase, read-out: IL-23 Kit225 Reporter, (IC50)
[5] = KIT225, 200 U/mL human recombinant IFNα, 5-6 hours, luciferase, read-out: IFNa Kit225 Reporter, (IC50)
[6] = Homo sapiens, KIT225, read-out: IL-23 Kit225 Reporter, (IC50, uM)
[7] = Homo sapiens, KIT225, read-out: IFNa Kit225 Reporter, (IC50, uM)
[8] = Homo sapiens, KIT225, 20 ng/mL human recombinant IL-23, 5-6 hours, luciferase, read-out: IL-23 Kit225 Reporter, (IC50)
[9] = Homo sapiens, KIT225, 200 U/mL human recombinant IFNα, 5-6 hours, luciferase, read-out: IFNa Kit225 Reporter, (IC50)

T1 sequence (P29597 with tags, fused parts or gaps): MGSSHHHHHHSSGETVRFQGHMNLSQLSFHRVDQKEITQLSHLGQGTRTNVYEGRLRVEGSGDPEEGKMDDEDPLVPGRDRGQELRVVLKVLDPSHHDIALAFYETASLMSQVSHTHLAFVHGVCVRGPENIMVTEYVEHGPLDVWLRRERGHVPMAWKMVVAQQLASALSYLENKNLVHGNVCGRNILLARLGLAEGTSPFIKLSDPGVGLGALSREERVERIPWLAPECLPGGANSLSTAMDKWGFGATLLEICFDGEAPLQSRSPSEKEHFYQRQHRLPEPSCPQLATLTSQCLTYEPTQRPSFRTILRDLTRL

Row | SMILES | EC50 [1] [nM] | IC50 [2, 4] [µM] | IC50 [3, 5] [µM] | IC50 [2, 6] [µM] | IC50 [3, 7] [µM] | IC50 [2, 8] [µM] | IC50 [3, 9] [µM]
1 | CCCCCNc1cc(Nc2cc(C)cc(C)c2)nn2c(C(N)=O)cnc12 [Example 55] | 80 | 2.38 | 3.62 |  |  |  | 
2 | COCCNc1cc(Nc2cc(C)cc(C)c2)nn2c(C(N)=O)cnc12 [Example 56] | 70 | 2.12 | 1.79 |  |  |  | 
3 | Cc1cc(C)cc(Nc2cc(NCCN(C)C)c3ncc(C(N)=O)n3n2)c1 [Example 58] | 80 |  |  | 1.55 | 2.96 |  | 
4 | Cc1cc(F)cc(Nc2cc(NCC(F)(F)F)c3ncc(C(N)=O)n3n2)c1 [Example 59] | 160 | 9.48 | 12.5 |  |  |  | 
5 | Cc1cc(C)cc(Nc2cc(Nc3cncs3)c3ncc(C(N)=O)n3n2)c1 [Example 61] | 50 | 2.63 | 1.94 |  |  |  | 
6 | Cc1cc(C)cc(Nc2cc(Nc3cc(C)n(C)n3)c3ncc(C(N)=O)n3n2)c1 [Example 62] | 300 | 13.2 | 11 |  |  |  | 
7 | Cc1cc(C)cc(Nc2cc(Nc3cnccn3)c3ncc(C(N)=O)n3n2)c1 [Example 63] | 280 | 12.5 | 12.5 |  |  |  | 
8 | Cc1cc(C)cc(Nc2cc(Nc3cccnc3)c3ncc(C(N)=O)n3n2)c1 [Example 64] | 70 | 12.5 | 12.5 |  |  |  | 
9 | Cc1cc(C)cc(Nc2cc(N)c3ncc(C(N)=O)n3n2)c1 [Example 67] | 10 | 0.7 | 0.73 |  |  |  | 
10 | Cc1cc(F)cc(Nc2ccc3ncc(C(=O)NC4CC4)n3n2)c1 [Example 68] | 2.26 |  |  |  |  | 0.95 | 0.86
11 | CNc1nc(Nc2cc(C)cc(C)c2)nn2c(C(N)=O)cnc12 [Example 69] | 5.44 | 0.42 | 0.15 |  |  |  | 
12 | Cc1cc(C)cc(Nc2nc(NC3CC3)c3ncc(C(N)=O)n3n2)c1 [Example 70] | 80 | 11.2 | 12.5 |  |  |  | 
13 | Cc1cc(F)cc(Nc2nc(NC3CC3)c3ncc(C(N)=O)n3n2)c1 [Example 71] | 140 | 2.97 | 12.5 |  |  |  | 
14 | CNc1nc(Nc2cc(C)cc(F)c2)nn2c(C(N)=O)cnc12 [Example 73] | 7.75 | 0.28 | 0.14 |  |  |  | 
15 | CNc1nc(Nc2ccccc2OC)nn2c(C(N)=O)cnc12 [Example 74] | 10 | 0.3 | 0.2 |  |  |  | 
16 | CNc1cc(Nc2c(OC)ccc(F)c2F)nn2c(C(=O)NC3CC3)cnc12 [Example 75] | 2.09 |  |  |  |  | 0.1 | 0.05
17 | CNc1cc(N(C)c2ccccc2)nn2c(C(=O)NC3CC3)cnc12 [Example 76] | 50 |  |  |  |  | 3.55 | 2.79
18 | CNc1cc(Nc2ccccc2OC)nn2c(C(=O)NC3CC3)cnc12 [Example 77] | 4.02 |  |  |  |  | 0.03 | 0.01
19 | CNc1cc(N2CCc3ccccc32)nn2c(C(=O)NC3CC3)cnc12 [Example 78] | 8.17 | 0.18 | 0.07 |  |  |  | 
20 | CNc1cc(Nc2cc(F)cc(F)c2OC)nn2c(C(=O)NC3CC3)cnc12 [Example 79] | 6.95 |  |  |  |  | 0.07 | 0.05
21 | CNc1cc(Nc2ccccc2OC)nn2c(C(=O)NCC(C)(C)O)cnc12 [Example 80] | 4.83 | 0.15 | 0.12 |  |  |  | 

Row | SMILES | EC50 [1] [nM] | IC50 [2, 4] [µM] | IC50 [3, 5] [µM] | IC50 [2, 6] [µM] | IC50 [3, 7] [µM] | IC50 [2, 8] [µM] | IC50 [3, 9] [µM]
22 | CNc1cc(Nc2cc(F)cc(F)c2OC)nn2c(C(=O)NCC(C)(C)O)cnc12 [Example 81] | 7.26 | 0.27 | 0.23 |  |  |  | 
23 | CNc1cc(Nc2cccc3c2OCCO3)nn2c(C(=O)NCC(C)(C)O)cnc12 [Example 82] | 10 | 0.18 | 0.09 |  |  |  | 
24 | CNc1cc(Nc2cc(F)cc(F)c2OC)nn2c(C(N)=O)cnc12 [Example 83] | 5.76 | 0.17 | 0.06 |  |  |  | 
25 | CNc1cc(Nc2cccc(-n3cccn3)n2)nn2c(C(=O)NC3CC3)cnc12 [Example 85] | 9.31 | 0.04 | 0.03 |  |  |  | 
26 | CNc1cc(Nc2cccc(-c3ccccc3)n2)nn2c(C(=O)NC3CC3)cnc12 [Example 86] | 20 |  |  |  |  | 0.29 | 0.3
27 | CNc1cc(Nc2cccc(N3CCOC3=O)n2)nn2c(C(=O)NC3CC3)cnc12 [Example 87] | 4.31 | 0.09 | 0.06 |  |  |  | 
28 | CNc1cc(Nc2cccc(N3CCCC3=O)n2)nn2c(C(=O)NC3CC3)cnc12 [Example 88] | 8.34 | 0.01 | 0.02 |  |  |  | 
29 | CNc1cc(Nc2cccc(-n3ccc(C(F)(F)F)n3)n2)nn2c(C(=O)NC3CC3)cnc12 [Example 89] | 10 | 0.39 | 0.44 |  |  |  | 
30 | CNc1cc(Nc2cccc(N3CCC(O)C3=O)n2)nn2c(C(=O)NC3CC3)cnc12 (stereo not drawn) [Example 90] | 3.9 | 0.7 | 0.14 |  |  |  | 
31 | CNc1cc(Nc2cccnc2-n2cccn2)nn2c(C(=O)NC3CC3)cnc12 [Example 92] | 30 |  |  |  |  | 0.4 | 0.21
32 | CNc1cc(Nc2cncc(OC)c2)nn2c(C(=O)NC3CC3)cnc12 [Example 93] | 10 |  |  |  |  | 1.1 | 0.41
33 | CNc1cc(Nc2cccnc2OC)nn2c(C(=O)NC3CC3)cnc12 [Example 94] | 1.37 |  |  |  |  | 0.02 | 0.03
34 | CNc1cc(Nc2cccnc2F)nn2c(C(=O)NC3CC3)cnc12 [Example 95] | 20 |  |  |  |  | 0.37 | 0.27
35 | CNc1cc(Nc2cncc(C)c2)nn2c(C(=O)NC3CC3)cnc12 [Example 96] | 7.18 |  |  |  |  | 0.51 | 0.6
36 | CNc1cc(Nc2cccnc2C)nn2c(C(=O)NC3CC3)cnc12 [Example 97] | 30 |  |  |  |  | 0.42 | 0.65
37 | CNc1cc(Nc2cccnc2-n2nc(C)cc2C(F)(F)F)nn2c(C(=O)NC3CC3)cnc12 [Example 100] | 140 | 12.5 | 12.5 |  |  |  | 
38 | CNc1cc(Nc2cccnc2-n2ccc(C)n2)nn2c(C(=O)NC3CC3)cnc12 [Example 101] | 270 |  |  |  |  | 7.19 | 5.79
39 | CCNC(=O)c1ncccc1Nc1cc(NC)c2ncc(C(=O)NC3CC3)n2n1 [Example 103] | 160 |  |  | 0.47 | 0.36 |  | 
40 | O=C(NC1CC1)c1cnc2c(NCCN3CCOCC3)cc(Nc3cccc4c3OCCO4)nn12 [Example 110] | 7.52 | 0.16 | 0.12 |  |  |  | 
41 | CNc1cc(Nc2cccc(-c3ccc(C(F)(F)F)cc3F)c2)nn2c(C(=O)NC3CC3)cnc12 [Example 116] | 65.5 | 1.1 | 1.2 |  |  |  | 

From US10479793B2, “Imidazopyridazine compounds useful as modulators of IL-12, IL-23 and/or IFN alpha responses” (BRISTOL-MYERS SQUIBB COMPANY, priority 2015, dated 2019)
